Our source for the IC50 values is patent US20070054916A1, “Aryl nitrogen-containing bicyclic compounds and methods of use” (Amgen Inc., priority 2004, published 2007).

By pIC50 is commonly meant the negative decadic logarithm of the IC50, by convention in mol/L.

Molecules are shown by their SMILES. pIC50: −log10 of the molar value. Bounds are passed on as bounds.

In this assay the test system is production of TNF by monocytes activated with bacterial lipopolysaccharide (LPS). In words: Lipopolysaccharide-activated monocyte TNF production assay. The assay is classed as cell-based. Particulars: Homo sapiens, read-out: IC50 values in the monocyte assay (LPS induced TNF release). On the procedure:
Lipopolysaccharide-Activated Monocyte TNF Production Assay
Test compounds were evaluated in vitro for the ability to inhibit the production of TNF by monocytes activated with bacterial lipopolysaccharide (LPS). Fresh residual source leukocytes (a byproduct of plateletpheresis) were obtained from a local blood bank, and peripheral blood mononuclear cells (PBMCs) were isolated by density gradient centrifugation on Ficol-Paque Plus (Pharmacia). PBMCs were suspended at 2×10^6/ml in DMEM supplemented to contain 2% FCS, 10 mM, 0.3 mg/ml […], 100 U/ml penicillin G and […] streptomycin sulfate (complete media). Cells were plated into Falcon flat bottom, 96 well culture plates (200 μl/well) and cultured overnight at 37° C. and 6% CO2. Non-adherent cells were removed by washing with 200 μl/well of fresh medium. Wells containing adherent cells (˜70% monocytes) were replenished with 100 μl of fresh medium.
Preparation of Test Compound Stock Solutions
Test compounds were dissolved in […]. Compound stock solutions were prepared to an initial concentration of […]. Stocks were diluted initially to 20-200 μM in complete media. Nine two-fold serial dilutions of each compound were then prepared in complete medium.
Treatment of Cells with Test Compounds and Activation of TNF Production with Lipopolysaccharide
One hundred microliters of each test compound dilution were added to microtiter wells containing adherent monocytes and 100 μl complete medium. Monocytes were cultured with test compounds for 60 min at which time 25 μl of complete medium containing 30 ng/ml lipopolysaccharide from E. coli K532 were added to each well. Cells were cultured an additional 4 hrs. Culture supernatants were then removed and TNF presence in the supernatants was quantified using an ELISA.
Flat bottom, 96 well Corning High Binding ELISA plates were coated overnight (4° C.) with 150 μL/well of 3 μg/ml murine anti-human TNF-α MAb (R&D Systems #MAB210). Wells were then blocked for 1 hr at room temperature with 200 μL/well of CaCl2-free ELISA buffer supplemented to contain 20 mg/ml BSA (standard ELISA buffer: […], 150 mM NaCl, 2 mM CaCl2, 0.15 mM thimerosal, pH 7.4). Plates were washed and replenished with 100 μl of test supernatants (diluted 1:3) or standards. Standards consisted of eleven 1.5-fold serial dilutions from a stock of 1 ng/ml recombinant human TNF (R&D Systems). Plates were incubated at room temperature for 1 hr on orbital shaker (300 rpm), washed and replenished with 100 μl/well of 0.5 ug/ml goat anti-human TNF-α (R&D systems #AB-210-NA) biotinylated at a 4:1 ratio. Plates were incubated for 40 min, washed and replenished with 100 μl/well of alkaline phosphatase-conjugated streptavidin (Jackson ImmunoResearch #016-050-084) at 0.02 ug/ml. Plates were incubated 30 min, washed and replenished with 200 μl/well of 1 mg/ml of p-nitrophenyl phosphate. After 30 min, plates were read at 405 nm on a Vmax plate reader.
Standard curve data were fit to a second order polynomial and unknown TNF-α concentrations determined from their OD by solving this equation for concentration. TNF concentrations were then plotted vs. test compound concentration using a second order polynomial. This equation was then used to calculate the concentration of test compounds causing a 50% reduction in TNF production.
Turning to `CNc1ncc2cc(-c3cc(NC(=O)c4cc(C(F)(F)F)cc(C(F)(F)F)c4)ccc3C)cnc2n1` [Example 200, N-(4-methyl-3-(2-(methylamino)pyrido[2,3-d]pyrimidin-6-yl)phenyl)-3,5-bis(trifluoromethyl)benzamide], the pIC50 was at least 4.60.

Take `CNc1ncc2cc(-c3cc(NC(=O)c4cc(F)cc(C(F)(F)F)c4)ccc3C)cnc2n1` [Example 217, 3-fluoro-N-(4-methyl-3-(2-(methylamino)pyrido[2,3-d]pyrimidin-6-yl)phenyl)-5-(trifluoromethyl) benzamide]: the pIC50 was at least 4.60.

With `Cc1ccc(C(=O)Nc2cccc(C(F)(F)F)c2F)cc1-c1ccc2nc(NCCN3CCCC3)ncc2c1` [Example 26, N-(2-fluoro-3-(trifluoromethyl)phenyl)-4-methyl-3-(2-((2-(1-pyrrolidinyl)ethyl)amino)-6-quinazolinyl) benzamide], the pIC50 was at least 4.60.

With `CNc1ncc2cc(-c3cc(C(=O)Nc4cc(C(C)(C)C)ccc4OC)ccc3C)cnc2n1` [Example 186], the pIC50 is at least 4.60.

For the compound `Cc1csc(NC(=O)c2ccc(C)c(-c3ccc4nc(N)ncc4c3)c2)n1` [Example 341, 3-(2-amino-6-quinazolinyl)-4-methyl-N-(4-thiazol-2-yl)benzamide], the pIC50 was at least 4.60.

Take `Cc1cc(NC(=O)c2ccc(C)c(-c3ccc4nc(N)ncc4c3)c2)c(N(C)CCCN(C)C)cc1C` [Example 116, 3-(2-amino-6-quinazolinyl)-N-(2-((3-(dimethylamino)propyl)(methyl)amino)-4,5-dimethylphenyl)-4-methylbenzamide]: the pIC50 was at least 4.60.

Regarding `Cc1ccc(C(=O)Nc2ccc(C(F)(F)F)cc2N(C)CCCN(C)C)cc1-c1ccc2nc(N)ncc2c1` [Example 118, 3-(2-amino-6-quinazolinyl)-N-(2-((3-(dimethylamino)propyl)(methyl)amino)-4-(trifluoromethyl)phenyl)-4-methylbenzamide], the pIC50 was at least 4.60.

Consider `Cc1ccc(C(=O)Nc2c3c(nn2CCC#N)CCC3)cc1-c1ccc2nc(N)ncc2c1` [Example 304, 3-(2-amino-6-quinazolinyl)-N-(2-(2-cyanoethyl)-2,4,5,6-tetrahydrocyclopenta [c]pyrazol-3-yl)-4-methylbenzamide], for which the pIC50 is at least 4.60.

Turning to `Cc1ccc(C(=O)NCc2ccc(C(F)(F)F)nc2)cc1-c1ccc2nc(N)ncc2c1` [Example 357, 3-(2-amino-6-quinazolinyl)-4-methyl-N-((6-(trifluoromethyl)-3-pyridinyl)methyl) benzamide], the pIC50 is at least 4.60.

Take `Nc1ncc2cc(-c3cccc(C(=O)Nc4cc(C(F)(F)F)ccc4N4CCCCC4)c3)ccc2n1` [Example 54, 3-(2-amino-6-quinazolinyl)-N-(2-(1-piperidinyl)-5-(trifluoromethyl)phenyl)benzamide]: the pIC50 was at least 4.60.

On to `Cc1ccnc(NC(=O)c2ccc(C)c(-c3ccc4nc(N)ncc4c3)c2)c1` [Example 339, 3-(2-amino-6-quinazolinyl)-4-methyl-N-(4-methyl-2-pyridinyl)benzamide], for which the pIC50 is at least 4.60.

Regarding `Cc1ccc(C(=O)Nc2cc(CN3CCN(C)CC3)cc(C(F)(F)F)c2)cc1-c1ccc2nc(N)ncc2c1` [Example 159, 3-(2-amino-6-quinazolinyl)-4-methyl-N-(3-((4-methyl-1-piperazinyl)methyl)-5-(trifluoromethyl)phenyl)benzamide], the negative logarithm of the IC50 (pIC50) is at least 4.60.

Consider `CCN(CC)CCNC(=O)c1cc(NC(=O)c2ccc(C)c(-c3cnc4nc(NC)ncc4c3)c2)cc(C(F)(F)F)c1` [Example 190, N-(3-(((2-(diethylamino)ethyl)amino)carbonyl)-5-(trifluoromethyl)phenyl)-4-methyl-3-(2-(methylamino)pyrido [2,3-d]pyrimidin-6-yl)benzamide], for which the pIC50 is at least 4.60.

For the compound `COc1ccc(C(F)(F)F)cc1NC(=O)c1ccc(C)c(-c2ccc3nc(N)ncc3c2)c1` [Example 41, 3-(2-amino-6-quinazolinyl)-4-methyl-N-(2-(methyloxy)-5-(trifluoromethyl)phenyl)benzamide], the pIC50 was at least 4.60.

Regarding `Cc1cc(NC(=O)c2ccc(C)c(-c3ccc4nc(N)ncc4c3)c2)on1` [Example 323, 3-(2-amino-6-quinazolinyl)-4-methyl-N-(3-methyl-5-isoxazolyl)benzamide], the pIC50 is at least 4.60.

Take `Nc1ncc2cc(-c3cc(C(=O)Nc4cc(C(F)(F)F)ccc4N4CCCCC4)ccc3Cl)ccc2n1` [Example 156, 3-(2-amino-6-quinazolinyl)-4-chloro-N-(2-(1-piperidinyl)-5-(trifluoromethyl)phenyl)benzamide]: the pIC50 is at least 4.60.

In the case of `COc1c(Cl)cccc1NC(=O)c1ccc(C)c(-c2ccc3nc(N)ncc3c2)c1` [Example 284, 3-(2-amino-6-quinazolinyl)-N-(5-chloro-8-(methyloxy)-phenyl)-4-methylbenzamide], the pIC50 was at least 4.60.

As for `Cc1ccc(C(=O)Nc2cccc(C(F)(F)F)c2)cc1-c1ccc2nc(NC3CC3)ncc2c1` [Example 29, 3-(2-(cyclopropylamino)-6-quinazolinyl)-4-methyl-N-(3-(trifluoromethyl)phenyl)benzamide], the pIC50 is at least 4.60.

Turning to `COc1ccc(C(=O)Nc2ccccc2)cc1NC(=O)c1ccc(C)c(-c2ccc3nc(N)ncc3c2)c1` [Example 145, 3-(2-amino-6-quinazolinyl)-4-methyl-N-(2-(methyloxy)-5-((phenylamino)carbonyl)phenyl) benzamide], the negative logarithm of the IC50 (pIC50) was at least 4.60.

Take `CCN(CC)S(=O)(=O)c1ccc(OC)c(NC(=O)c2ccc(C)c(-c3cnc4nc(NC)ncc4c3)c2)c1` [Example 191, N-(5-((diethylamino)sulfonyl)-2-(methyloxy)phenyl)-4-methyl-3-(2-(methylamino)pyrido [2,3-d]pyrimidin-6-yl)benzamide]: the pIC50 is at least 4.60.

In the case of `CCN(CC)CCOc1cccnc1NC(=O)c1ccc(C)c(-c2ccc3nc(N)ncc3c2)c1` [Example 363, 3-(2-amino-6-quinazolinyl)-N-(3-((2-(diethylamino)ethyl)oxy)-2-pyridinyl)-4-methylbenzamide], the pIC50 was at least 4.60.

For the compound `CNc1ncc2cc(-c3cc(NC(=O)c4cccc(C(F)(F)F)c4)ccc3C)cnc2n1` [Example 199, N-(4-methyl-3-(2-(methylamino)pyrido[2,3-d]pyrimidin-6-yl)phenyl)-3-(trifluoromethyl) benzamide], the pIC50 is at least 4.60.

For the compound `CNc1ncc2cc(-c3cc(C(=O)Nc4cc(C(F)(F)F)ccc4F)ccc3C)ccc2n1` [Example 1, N-(2-fluoro-5-(trifluoromethyl)phenyl)-4-methyl-3-(2-(methylamino)quinazolin-6-yl)benzamide], the pIC50 is at least 4.60.

For `Cc1cc(F)c(C(=O)Nc2cccc(C(F)(F)F)c2)cc1-c1ccc2nc(NC3CC3)ncc2c1` [Example 39, 5-(2-(cyclopropylamino)-6-quinazolinyl)-2-fluoro-4-methyl-N-(3-(trifluoromethyl)phenyl)benzamide], the pIC50 was at least 4.60.

For the compound `Cc1cccc(C)c1-c1ccc2nc(NCCN3CCOCC3)ncc2c1` [Example 534, 6-(2,6-dimethylphenyl)-N-(2-morpholinoethyl)quinazolin-2-amine], the pIC50 is at least 4.60.

With `CCN(CC)CCNC(=O)Nc1ccc(NC(=O)c2ccc(C)c(-c3ccc4nc(N)ncc4c3)c2)cc1C(F)(F)F` [Example 5, 3-(2-amino-6-quinazolinyl)-N-(4-((((2-(diethylamino)ethyl)amino)carbonyl)amino)-3-(trifluoromethyl)phenyl)-4-methylbenzamide], the pIC50 was at least 4.60.

On to `Cc1ccc(C(=O)Nc2cc(C(F)(F)F)ccn2)cc1-c1ccc2nc(N)ncc2c1` [Example 345, 3-(2-amino-6-quinazolinyl)-4-methyl-N-(4-(trifluoromethyl)-2-pyridinyl)benzamide], for which the pIC50 is at least 4.60.

Take `CNc1ncc2cc(-c3cc(C(=O)Nc4cc(C(C)(C)C)ccc4NC(=O)CN4CCOCC4)ccc3C)cnc2n1` [Example 192]: the pIC50 is at least 4.60.

For the compound `Cc1ccc(C(=O)Nc2cc(C(=O)NCCN3CCOCC3)cc(C(F)(F)F)c2)cc1-c1ccc2nc(N)ncc2c1` [Example 6], the pIC50 is at least 4.60.
